From ChEMBL document CHEMBL1152362, “Asperelines A-F, peptaibols from the marine-derived fungus Trichoderma asperellum” (J Nat Prod, 2009)
Non-standard residues stand in square brackets, D forms with d. Residues, ends and D or L forms follow the SMILES beside them. *: point of attachment. Prolinol = OC[C@@H]1CCCN1*; Aib = CC(C)(N)C(=O)O

Columns and labels:
Pyricularia oryzae = assay: Antimicrobial activity against Pyricularia oryzae; format: functional, organism-based
Staphylococcus aureus = assay: Antimicrobial activity against Staphylococcus aureus; format: functional
Escherichia coli = assay: Antimicrobial activity against Escherichia coli; format: functional
Alternaria solani = assay: Antimicrobial activity against Alternaria solani; format: functional, organism-based

## CC[C@@H](C)[C@H](NC(=O)C(C)(C)NC(=O)[C@@H](NC(=O)C(C)(C)NC(=O)C(C)(C)NC(C)=O)C(C)C)C(=O)NC(C)(C)C(=O)NC(C)(C)C(=O)N[C@@H](C)C(=O)NC(C)(C)C(=O)N1CCC[C@H]1CO [ASPERELINE A]
Pyricularia oryzae
  IC50: > 100 µg/mL
Staphylococcus aureus
  IC90: > 500 µg/mL
Escherichia coli
  IC90: > 500 µg/mL
Alternaria solani
  IC50: > 100 µg/mL

## CC[C@@H](C)[C@H](NC(=O)C(C)(C)NC(=O)[C@@H](NC(=O)C(C)(C)NC(=O)[C@H](C)NC(C)=O)C(C)C)C(=O)NC(C)(C)C(=O)NC(C)(C)C(=O)N[C@@H](C)C(=O)NC(C)(C)C(=O)N1CCC[C@H]1CO [ASPERELINE B]
Pyricularia oryzae
  IC50: > 100 µg/mL
Staphylococcus aureus
  IC90: > 500 µg/mL
Escherichia coli
  IC90: > 500 µg/mL
Alternaria solani
  IC50: > 100 µg/mL

## CC[C@@H](C)[C@H](NC(=O)C(C)(C)NC(=O)[C@@H](NC(=O)C(C)(C)NC(=O)C(C)(C)NC(C)=O)C(C)C)C(=O)NC(C)(C)C(=O)N[C@@H](C)C(=O)N[C@@H](C)C(=O)NC(C)(C)C(=O)N1CCC[C@H]1CO [ASPERELINE C]
Pyricularia oryzae
  IC50: > 100 µg/mL
Staphylococcus aureus
  IC90: > 500 µg/mL
Escherichia coli
  IC90: > 500 µg/mL
Alternaria solani
  IC50: > 100 µg/mL

## CC(=O)NC(C)(C)C(=O)NC(C)(C)C(=O)N[C@H](C(=O)NC(C)(C)C(=O)N[C@H](C(=O)NC(C)(C)C(=O)NC(C)(C)C(=O)N[C@@H](C)C(=O)NC(C)(C)C(=O)N1CCC[C@H]1CO)C(C)C)C(C)C [ASPERELINE D] (Ac-[Aib][Aib]V[Aib]V[Aib][Aib]A[Aib]-Prolinol)
Pyricularia oryzae
  IC50: > 100 µg/mL
Staphylococcus aureus
  IC90: > 500 µg/mL
Escherichia coli
  IC90: > 500 µg/mL
Alternaria solani
  IC50: > 100 µg/mL

## CC[C@@H](C)[C@H](NC(=O)C(C)(C)NC(=O)[C@@H](NC(=O)C(C)(C)NC(=O)C(C)(C)NC(C)=O)C(C)C)C(=O)NC(C)(C)C(=O)NC(C)(C)C(=O)N[C@@H](CO)C(=O)NC(C)(C)C(=O)N1CCC[C@H]1CO [ASPERELINE E]
Pyricularia oryzae
  IC50: > 100 µg/mL
Staphylococcus aureus
  IC90: > 500 µg/mL
Escherichia coli
  IC90: > 500 µg/mL
Alternaria solani
  IC50: > 100 µg/mL

## CC[C@@H](C)[C@H](NC(=O)C(C)(C)NC(=O)[C@@H](NC(=O)[C@@H](NC(=O)C(C)(C)NC(C)=O)C(C)C)C(C)C)C(=O)NC(C)(C)C(=O)NC(C)(C)C(=O)N[C@@H](C)C(=O)NC(C)(C)C(=O)N1CCC[C@H]1CO [ASPERELINE F]
Pyricularia oryzae
  IC50: > 100 µg/mL
Staphylococcus aureus
  IC90: > 500 µg/mL
Escherichia coli
  IC90: > 500 µg/mL
Alternaria solani
  IC50: > 100 µg/mL
